Biological target: Cytochrome P450 3A4 (Homo sapiens, UniProt P08684)
Assay: Inhibition of cytochrome P450 3A4

Sequence of Cytochrome P450 3A4 (P08684 whole entry): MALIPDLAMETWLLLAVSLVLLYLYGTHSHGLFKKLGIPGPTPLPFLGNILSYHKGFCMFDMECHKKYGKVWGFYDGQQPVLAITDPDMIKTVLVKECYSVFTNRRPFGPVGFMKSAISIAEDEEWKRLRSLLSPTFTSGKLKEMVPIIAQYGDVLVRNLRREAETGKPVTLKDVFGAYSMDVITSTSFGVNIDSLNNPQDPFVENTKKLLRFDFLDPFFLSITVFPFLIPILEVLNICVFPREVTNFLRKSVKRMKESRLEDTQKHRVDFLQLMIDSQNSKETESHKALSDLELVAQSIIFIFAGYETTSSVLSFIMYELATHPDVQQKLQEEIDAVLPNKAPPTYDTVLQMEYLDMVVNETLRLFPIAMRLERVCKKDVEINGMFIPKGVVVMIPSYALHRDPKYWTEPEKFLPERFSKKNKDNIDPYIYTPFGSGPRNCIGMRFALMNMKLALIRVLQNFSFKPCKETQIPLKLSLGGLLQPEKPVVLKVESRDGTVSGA

Compound	Inhibitory index
CN1CCC(c2c[nH]c3ccc(NC(=O)c4ccc(F)cc4)cc23)CC1	0.8
COc1ccccc1CN(CC(Cc1c[nH]c2ccccc12)NC(=O)CN1CCC(N2CCCCC2)CC1)C(C)=O (configuration not stated)	0.86
O[C@@H](COc1cccc2ncccc12)CN1CCN([C@@H]2c3ccccc3[C@@H]3[C@H](c4ccccc42)C3(F)F)CC1	0.88
OC(COc1cccc2ncccc12)CN1CCN(C2c3ccccc3C3CC3c3ccccc32)CC1 (configuration not stated)	0.88
COCCCOc1ccnc(C[S+]([O-])c2nc3ccccc3[nH]2)c1C (configuration not stated) [RABEPRAZOLE]	0.82
CC(C)(C)c1cc(CC2SCNC2=O)cc(C(C)(C)C)c1O (configuration not stated) [TAZOFELONE]	0.39
CN1[C@@H]2CC[C@H]1C[C@@H](NC(=O)c1cc(Cl)cc3c1OC(C)(C)C3)C2 [ZATOSETRON]	0.8
